Earlier results, collected in US8785634B2, “Spiropiperidine prolylcarboxypeptidase inhibitors” (Merck Sharp & Dohme Corp, priority 2010, dated 2014).

Key:
[1] = in vivo
[2] = system: obese, leptin deficient mice; details: systemic administration
[3] = system: rats; details: intracerebroventricular

Row | Molecule | weight loss, of body weight, drug compared to placebo [1] | overnight food intake [2] | overnight food intake [3]
1 | CCN[C@@H](C)Cc1cccc(C(F)(F)F)c1 [dexfenfluramine] | 5%-10% |  | 
2 | CCCCCCCCCCC[C@@H](C[C@@H]1OC(=O)[C@H]1CCCCCC)OC(=O)[C@H](CC(C)C)NC=O [orlistat] | 5%-10% |  | 
3 | CC(C)(N)Cc1ccccc1 [phentermine] | 5%-10% |  | 
4 | CC(C)CC(N(C)C)C1(c2ccc(Cl)cc2)CCC1 (stereo not drawn) [sibutramine] | 5%-10% |  | 
5 | t-butyl carbamate-prolyl prolinal [BPP] |  | suppression of overnight food intake | suppression of overnight food intake
